Values after ≈ are worked out from the molar mass of the structure shown.
How the values were obtained:
[1] = tested on: Mycobacterium tuberculosis; assay: Antitubercular activity against Mycobacterium tuberculosis BCG; assay type: functional
[2] = Lipophilicity, log P of the compound; details: octanol/water
[3] = tested on: Mycobacterium tuberculosis; assay: Antitubercular activity against Mycobacterium tuberculosis; assay type: functional; details: for MIC: Mycobacterium tuberculosis

In the case of `CC(C)/C=N/NC(=O)c1cccs1`, the MIC [1] is reported as 1.2 µg/mL (≈ 6.11 µM), the “log(1/MIC)” value [1] is reported as -0.07918 and the logP ([2]; logP) is reported as 0.125.
With `CCCCCC/C=N/NC(=O)c1cccs1` the MIC [1] was 6 µg/mL (≈ 25.2 µM), the “log(1/MIC)” value [1] was -0.7782 and the logP ([2]; logP) was 1.84.
For `NNC(=O)c1ccc(C(=O)NN)cc1`, the MIC [1] was 3 µg/mL (≈ 15.4 µM), the “log(1/MIC)” value [1] was -0.4771 and the logP ([2]; logP) was -3.83.
In the case of `NNC(=O)C(O)(c1ccccc1)c1ccccc1`, the MIC [1] is reported as 100 µg/mL (≈ 413 µM), the “log(1/MIC)” value [1] is reported as -2 and the logP ([2]; logP) is reported as 0.196.
For `CCCCCCCCCCCCNNC(=O)c1ccncc1`, the MIC [1] was 0.05 µg/mL (≈ 0.164 µM), the “log(1/MIC)” value [1] was 1.301 and the logP ([2]; logP) was 3.64.
For `O=C(NNCc1ccco1)c1ccncc1`, the MIC [1] was 15 µg/mL (≈ 69.1 µM), the “log(1/MIC)” value [1] was -1.176 and the logP ([2]; logP) was -0.641.
With `CC(=O)N1CCC(C(=O)NN)CC1` the MIC [1] was 6 µg/mL (≈ 32.4 µM), the “log(1/MIC)” value [1] was -0.7782 and the logP ([2]; logP) was -3.98.
For `CC(=O)NN`, the MIC [1] was 150 µg/mL (≈ 2020 µM), the “log(1/MIC)” value [1] was -2.176 and the logP ([2]; logP) was -2.78.
For `NNC(=O)/C=C/C(=O)NN`, the “log(1/MIC)” value [3] was -1.9 and the MIC [3] was 80 µg/mL (≈ 555 µM).
In the case of `NNC(=O)CCC(=O)NN`, the MIC [1] is reported as 25 µg/mL (≈ 171 µM) and the “log(1/MIC)” value [1] is reported as -1.398.
In the case of `NNC(=O)CCCCCCCCCCC(=O)NN`, the MIC [1] is reported as 3 µg/mL (≈ 11.6 µM), the “log(1/MIC)” value [1] is reported as -0.4771 and the logP ([2]; logP) is reported as -2.03.
In the case of `NNC(=O)C1CCC(C(=O)NN)CC1` (stereo unspecified), the MIC [1] is reported as 300 µg/mL (≈ 1500 µM), the “log(1/MIC)” value [1] is reported as -2.477 and the logP [2] is reported as -4.55.
With `NNC(=O)c1ccc(I)cc1` the MIC [1] was 6 µg/mL (≈ 22.9 µM), the “log(1/MIC)” value [1] was -0.7782 and the logP ([2]; logP) was 0.278.
With `CN(C)c1ccc(C(=O)NN)cc1` the MIC [1] was 6 µg/mL (≈ 33.5 µM), the “log(1/MIC)” value [1] was -0.7782 and the logP ([2]; logP) was -0.65.
With `O=C(N/N=C(\CO)C(O)C(O)C(O)CO)c1ccncc1` (stereo unspecified) the MIC [1] was 0.06 µg/mL (≈ 0.2 µM) and the “log(1/MIC)” value [1] was 1.222.
With `O=C(N/N=C/C(O)C(O)C(OC1OC(CO)C(O)C(O)C1O)C(O)CO)c1ccncc1` (stereo unspecified) the MIC [1] was 0.15 µg/mL (≈ 0.325 µM) and the “log(1/MIC)” value [1] was 0.8239.
For `CNC1C(OC2C(OC3C(O)C(O)C(NC(=N)N)C(O)C3NC(=N)N)OC(C)C2(O)/C=N\NC(=O)c2ccncc2)OC(CO)C(O)C1O` (stereo unspecified), the “log(1/MIC)” value [3] was 0.82 and the MIC [3] was 0.15 µg/mL (≈ 0.214 µM).
With `Cc1ccc(C)n1NC(=O)c1ccncc1` the MIC [1] was 10 µg/mL (≈ 46.5 µM), the “log(1/MIC)” value [1] was -1 and the logP ([2]; logP) was 0.854.
For `O=CNNC(=O)c1ccncc1`, the MIC [1] was 3 µg/mL (≈ 18.2 µM), the “log(1/MIC)” value [1] was -0.4771 and the logP ([2]; logP) was -2.99.
With `CCCCCC/C=N/NC(=O)c1ccncc1` the MIC [1] was 0.03 µg/mL (≈ 0.129 µM), the “log(1/MIC)” value [1] was 1.523 and the logP ([2]; logP) was 0.719.
With `C/C=C/CCCCCCC/C=N/NC(=O)c1ccncc1` the MIC [1] was 0.15 µg/mL (≈ 0.522 µM), the “log(1/MIC)” value [1] was 0.8239 and the logP ([2]; logP) was 2.29.
With `CCCCCCCCCC/C=N/NC(=O)c1ccncc1` the MIC [1] was 0.3 µg/mL (≈ 1.04 µM), the “log(1/MIC)” value [1] was 0.5229 and the logP ([2]; logP) was 2.83.
For `CC1CCC(=NNC(=O)c2ccncc2)CC1` (stereo unspecified), the MIC [1] was 0.07 µg/mL (≈ 0.303 µM), the “log(1/MIC)” value [1] was 1.1549 and the logP ([2]; logP) was 0.315.
In the case of `CC(C)COc1ccc(/C=N/NC(=O)c2ccncc2)cc1`, the MIC [1] is reported as 0.2 µg/mL (≈ 0.673 µM), the “log(1/MIC)” value [1] is reported as 0.699 and the logP ([2]; logP) is reported as 2.81.
In the case of `CC(C)CCOc1ccc(/C=N/NC(=O)c2ccncc2)cc1`, the MIC [1] is reported as 0.05 µg/mL (≈ 0.161 µM), the “log(1/MIC)” value [1] is reported as 1.301 and the logP ([2]; logP) is reported as 3.34.
In the case of `N/N=C(\CC(=O)c1ccncc1)C(=O)c1ccncc1`, the MIC [1] is reported as 15 µg/mL (≈ 55.9 µM), the “log(1/MIC)” value [1] is reported as -1.176 and the logP ([2]; logP) is reported as -3.16.
For `CC(C(=O)c1ccncc1)C(/C=N/N)C(=O)c1ccncc1` (stereo unspecified), the MIC [1] was 0.5 µg/mL (≈ 1.69 µM), the “log(1/MIC)” value [1] was 0.301 and the logP ([2]; logP) was -2.43.
In the case of `CC(=O)C/C(C)=N/NC(=O)c1ccncc1`, the MIC [1] is reported as 0.8 µg/mL (≈ 3.65 µM), the “log(1/MIC)” value [1] is reported as 0.09691 and the logP ([2]; logP) is reported as -3.02.
In the case of `O=C(N/N=C/C(O)C(O)C(O)CO)c1ccncc1` (stereo unspecified), the MIC [1] is reported as 0.05 µg/mL (≈ 0.186 µM), the “log(1/MIC)” value [1] is reported as 1.301 and the logP [2] is reported as -5.33.
In the case of `O=C(N/N=C\C(O)C(O)C(O)C(O)CO)c1ccncc1` (stereo unspecified), the MIC [1] is reported as 0.15 µg/mL (≈ 0.501 µM) and the “log(1/MIC)” value [1] is reported as 0.8239.
With `CC(=O)Nc1ccc(/C=N\NC(=O)c2ccncc2)cc1` the MIC [1] was 0.08 µg/mL (≈ 0.283 µM), the “log(1/MIC)” value [1] was 1.097 and the logP ([2]; logP) was 0.457.
For `CCC(CC)NNC(=O)c1ccncc1`, the MIC [1] was 3 µg/mL (≈ 14.5 µM), the “log(1/MIC)” value [1] was -0.4771 and the logP ([2]; logP) was -0.19.
For `O=C(NNC1CCCCC1)c1ccncc1`, the MIC [1] was 5 µg/mL (≈ 22.8 µM), the “log(1/MIC)” value [1] was -0.699 and the logP ([2]; logP) was -0.055.
With `CC1CCCC(NNC(=O)c2ccncc2)C1` (stereo unspecified) the MIC [1] was 4 µg/mL (≈ 17.1 µM), the “log(1/MIC)” value [1] was -0.6021 and the logP ([2]; logP) was 0.464.
With `CC1CCC(NNC(=O)c2ccncc2)CC1` (stereo unspecified) the MIC [1] was 5 µg/mL (≈ 21.4 µM), the “log(1/MIC)” value [1] was -0.699 and the logP ([2]; logP) was 0.594.
With `NNC(=O)c1cncs1` the MIC [1] was 10 µg/mL (≈ 69.8 µM), the “log(1/MIC)” value [1] was -1 and the logP ([2]; logP) was -2.2.
In the case of `NNC(=O)C(O)c1ccccc1` (stereo unspecified), the MIC [1] is reported as 40 µg/mL (≈ 241 µM), the “log(1/MIC)” value [1] is reported as -1.602 and the logP ([2]; logP) is reported as -1.37.
For `NNC(=O)Cc1ccc(Cl)cc1`, the MIC [1] was 10 µg/mL (≈ 54.2 µM), the “log(1/MIC)” value [1] was -1 and the logP ([2]; logP) was -0.503.
For `NNC(=O)C1Cc2ccccc2O1` (stereo unspecified), the MIC [1] was 22.5 µg/mL (≈ 126 µM), the “log(1/MIC)” value [1] was -1.352 and the logP ([2]; logP) was -1.32.
With `Cn1cncc1C(=O)NN` the MIC [1] was 300 µg/mL (≈ 2140 µM), the “log(1/MIC)” value [1] was -2.477 and the logP ([2]; logP) was -2.55.
In the case of `NNC(=O)c1cscn1`, the MIC [1] is reported as 15 µg/mL (≈ 105 µM), the “log(1/MIC)” value [1] is reported as -1.176 and the logP ([2]; logP) is reported as -2.05.
For `O=C(NNC(=O)c1cccs1)c1cccs1`, the MIC [1] was 15 µg/mL (≈ 59.4 µM), the “log(1/MIC)” value [1] was -1.176 and the logP ([2]; logP) was -0.738.
In the case of `NNC(=O)c1cccnc1` [NICOTINIC ACID HYDRAZIDE], the MIC [1] is reported as 2 µg/mL (≈ 14.6 µM), the “log(1/MIC)” value [1] is reported as -0.301 and the logP [2] is reported as -2.32.
With `NNC(=O)c1cnccn1` [PYRAZINE CARBOXYLIC ACID HYDRAZIDE] the MIC [1] was 1.5 µg/mL (≈ 10.9 µM), the “log(1/MIC)” value [1] was -0.1761 and the logP ([2]; logP) was -2.87.
